# From US10351546B2, “Pyridin-3-yl acetic acid derivatives as inhibitors of human immunodeficiency virus replication” (priority 2015, dated 2019)
# Tested on: NL-RLuc virus
# Assay: Inhibition of HIV replication (NL-RLuc luciferase reporter virus in MT-2 cells)
# Format: cell-based
# Settings: Human immunodeficiency virus 1, MT2, 120 h, read-out: Activity
# Outline: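 MT-2 cells were infected with NL4-3-derived virus carrying Renilla luciferase in place of part of nef, in RPMI/10% FBS, with serial compound dilutions. Luciferase read after 5 days of multicycle replication. EC50 from the median effect equation, at least 2 experiments.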
row,Structure (SMILES),EC50
1,"Cc1nc(COCc2nc(C)c([C@H](OC(C)(C)C)C(=O)O)c(N3CCC(C)(C)CC3)c2-c2ccc(OCCc3ccc(F)cc3)cc2)sc1C [Example 20, (S)-2-(tert-Butoxy)-2-(4-(4,4-dimethylpiperidin-1-yl)-6-(((4,5-dimethylthiazol-2-yl)methoxy)methyl)-5-(4-(4-fluorophenethoxy)phenyl)-2-methylpyridin-3-yl)acetic acid]",< 100 nM
2,"Cc1nc(CN(C)C(=O)C(=O)N(C)C)c(-c2ccc(OCCc3ccc(F)cc3)cc2)c(N2CCC(C)(C)CC2)c1[C@H](OC(C)(C)C)C(=O)O [Example 102, (S)-2-(tert-Butoxy)-2-(6-((2-(dimethylamino)-N-methyl-2-oxoacetamido)methyl)-4-(4,4-dimethylpiperidin-1-yl)-5-(4-(4-fluorophenethoxy)phenyl)-2-methylpyridin-3-yl)acetic acid]",< 100 nM
3,"Cc1cccc(Cl)c1CN1CCc2cc(-c3c(N)nc(C)c([C@H](OC(C)(C)C)C(=O)O)c3N3CCC(C)(C)CC3)ccc2C1 [Example 164, (S)-2-(6-Amino-5-(2-(2-chloro-6-methylbenzyl)-1,2,3,4-tetrahydroisoquinolin-6-yl)-4-(4,4-dimethylpiperidin-1-yl)-2-methylpyridin-3-yl)-2-(tert-butoxy)acetic acid]",< 100 nM
4,"CNCc1nc(C)c([C@H](OC(C)(C)C)C(=O)O)c(N2CCC(C)(C)CC2)c1-c1ccc(OCCc2ccc(F)cc2)cc1 [Example 64, (S)-2-(tert-Butoxy)-2-(4-(4,4-dimethylpiperidin-1-yl)-5-(4-(4-fluorophenethoxy)phenyl)-2-methyl-6-((methylamino)methyl)pyridin-3-yl)acetic acid]",< 100 nM
5,"Cc1nc(CS(C)(=O)=O)c(-c2ccc(OCCc3ccc(F)cc3)cc2)c(N2CCC(C)(C)CC2)c1[C@H](OC(C)(C)C)C(=O)O [Example 18, (S)-2-(tert-Butoxy)-2-(4-(4,4-dimethylpiperidin-1-yl)-5-(4-(4-fluorophenethoxy)phenyl)-2-methyl-6-((methylsulfonyl)methyl)pyridin-3-yl)acetic acid]",< 100 nM
6,"CCOCCOCc1nc(C)c([C@H](OC(C)(C)C)C(=O)O)c(N2CCC(C)(C)CC2)c1Br [Example 37, (S)-2-(5-bromo-4-(4,4-dimethylpiperidin-1-yl)-6-((2-ethoxyethoxy)methyl)-2-methylpyridin-3-yl)-2-(tert-butoxy)acetic acid]",< 100 nM
7,"Cc1nc(CNCC2COC2)c(-c2ccc(OCCc3ccc(F)cc3)cc2)c(N2CCC(C)(C)CC2)c1[C@H](OC(C)(C)C)C(=O)O [Example 76, (S)-2-(tert-Butoxy)-2-(4-(4,4-dimethylpiperidin-1-yl)-5-(4-(4-fluorophenethoxy)phenyl)-2-methyl-6-(((oxetan-3-ylmethyl)amino)methyl)pyridin-3-yl)acetic acid]",< 100 nM
